{
  "source": "paper PMC12226424",
  "about": "“Enhanced discovery of bacterial laccase‐like multicopper oxidase through computer simulation and metagenomic analysis of industrial wastewater” (FEBS Open Bio, 2025)",
  "key": {"Lac4": {"test_system": "Lac4", "details": "100 mM acetate, 2.5 mM copper sulfate, O2; listed optimum pH 4.0, 55 °C"}, "Lac5-6": {"test_system": "T1, Lac5-6", "T1 construct": "gene Lac5 (GenBank PP987286)", "details": "100 mM acetate, 2.5 mM copper sulfate, O2; listed optimum pH 4.0, 55 °C"}, "Lac1": {"test_system": "Lac1", "details": "100 mM acetate, 2.5 mM copper sulfate, O2; listed optimum pH 5.0, 55 °C"}, "Lac9": {"test_system": "Lac9", "details": "100 mM acetate, 2.5 mM copper sulfate, O2; listed optimum pH 4.8, 55 °C"}, "Lac5": {"test_system": "Lac5", "details": "100 mM acetate, 2.5 mM copper sulfate, O2; listed optimum pH 4.0, 50 °C"}, "Lac3": {"test_system": "Lac3", "details": "100 mM acetate, 2.5 mM copper sulfate, O2; listed optimum pH 4.6, 60 °C"}},
  "data": [
    {"smiles": "CCn1c(=NN=c2sc3cc(S(=O)(=O)O)ccc3n2CC)sc2cc(S(=O)(=O)O)ccc21", "note": "[ABTS, 2,2′‐azinobis(3‑ethylbenzo‐6‑thiazolinesulfonic acid)]", "values": [
      {"measurement": "Km", "setting": "Lac4", "value": 426, "unit": "µM"},
      {"measurement": "Km", "setting": "Lac5-6", "value": 55, "unit": "µM"},
      {"measurement": "Km", "setting": "Lac1", "value": 112, "unit": "µM"},
      {"measurement": "Km", "setting": "Lac9", "value": 101, "unit": "µM"},
      {"measurement": "Km", "setting": "Lac5", "value": 63, "unit": "µM"},
      {"measurement": "Km", "setting": "Lac3", "value": 99, "unit": "µM"}
    ]}
  ]
}
